Reference: US6384029B1, “Optically active pyridyl-4h-1,2,4-oxdadiazine derivative and its use in the treatment of vascular diseases” (Biorex Kutató Fejlesztö RT., priority 1998, dated 2002)
Marks after values point to notes of the source that are not given here.

Key:
[1] = system: spontaneously hypertensive rats; assay: Myocardial infarction in spontaneously hypertensive rats (coronary occlusion/reperfusion); assay type: in vivo, rat; conditions: SH rats; for Survival (%) / Infarcted area (%): oral 6 hours before occlusion (100 mg/kg), 1 h occlusion, 1 h reperfusion; for Infarcted area (%): percentage of left ventricle
Description: Myocardial Infarction in Spontaneously Hypertensive Rats
Myocardial ischemia was induced by a temporary occlusion of the main left coronary artery, according to Griswold et al (J. Pharmacol. Methods 1988, 20: 225-235). SH rats were anaesthetized with sodium pentobarbital (60 mg/kg i.p.). After tracheotomy, the animals were ventilated with room air by a respirator for small rodents (model: Harvard 552), with a stroke volume of 1,5-2 ml/100 g and a rate of 55 strokes/min to maintain normal pO2, pCO2 and pH parameters. The right carotid artery was catheterized and connected to a pressure transducer (P236B Stetham) for the measurement of systemic arterial blood pressure (BP) by means of a preamplifier (Hg-O2D Experimetria®). Heart rate (HR) was measured by a cardiotachometer (HR-01, Experimetria®). The electrocardiogram (ECG standard lead III) was recorded on a devices recorder (ER- 14, Micromed®) by means of subcutaneous steel needle electrodes. The chest was opened by a left thoracotomy and the heart was exteriorized by a gentle pressure on the right side of the rib cage. A 4/0 silk ligature was quickly placed under the main left coronary artery. The heart was replaced in the chest and the animal left to recover. Rectal temperature was monitored and was maintained constant at 37° C. The experiment was initiated with a 15 min stabilization period during which the observation of a sustained blood pressure less than 70 mmHg and/or the occurrence of arrhythmias lead to exclusion. Myocardial ischemia was induced with coronary artery occlusion for 1 h and reperfusion allowed for 1 hour. The drugs were administered orally 6 hours before occlusion.
Quantification of Myocardial Infarction
At the end of experiment, the heart was quickly removed. The left ventricle was then sliced into 2 mm thick sections parallel to the atrioventricular groove. The slices were incubated in a 0.1% solution of p-Nitroblue Tetrazolium (NBT) grade III, pH 7,4 for 15 min. The non-infarcted area was colored blue due to formation of a precipitate that results from reaction of NBT with dehydrogenase enzymes. Loss of these enzymes in the infarcted myocardium prevents the formation of the precipitate; thus, the infarcted area within the risk region remains pale yellow. The necrotic area was determined using computerized image analysis (COLIM, Pictron Kft), and was expressed as a percentage of the left ventricle.

[2] = system: coronary flow responses to serotonin (5-HT) in hearts from spontaneously hypertensive (SH) rats; assay: Langendorff perfused rat heart: endothelial function before and after ischemia; conditions: for postischemic coronary response in percentage of the preischemic vasodilator response: 10^−6 M drug in perfusate, 10^−7 M 5-HT, 10 min global ischemia, SH rat heart
Description: Langendorff Perfused Rat Heart
Protocol for Assesment of Endothelial Function Before and After Ischemia
Rats were heparinised with i.p. heparin sodium (2500 IU) and anesthetized with i.p. pentobarbital (60 mg/kg). Hearts from spontaneously hypertensive (SH) rats were quickly removed and immediately perfused via the aorta using a gravity-flow, non-recirculating Langendorff apparatus (Experimetria Ltd) at a constant perfusion pressure (100 cm H2O) with Krebs-Henseleit Solution (KHS) containing in mM: NaCl 120; KCl 5.4; CaCl2 2.7; MgCl2 1.1; NaHCO3 24; D-glucose 11. The KHS was gassed with carbogen (95% O2; 5% CO2) resulting pH 7.4.
We used the so-called non-working heart model and measured the mean coronary flow by a transonic flow meter (Type T206, Transonic Systems Inc.). The flow probe was placed above the aortic cannula. Coronary flow was monitored throughout the experiment and registered by a potentiometric recorder. Hearts were allowed to beat spontaneously throughout the experiment. After 20-30 min of equilibration period the coronary flow reached a baseline value.
Endothelial function was assessed through observations of preischemic and postischemic coronary flow responses to serotonin (5-HT). In response to serotonin, the progress of dilatation of coronary artery depends on the soundness of the endothelium.
The Langendorff infusion was switched to the another column containing additional 10^−7 M serotonin (5-HT, Sigma Chemical Co.). The ensuing dilatation of coronary artery was monitored and when the steady state had been reached the 5-HT was washed out by switching back to the ordinary KHS. The heart was then subjected to a global ischemia for 10 min by the clamping the aortic cannula. At the end of the ischemic period, the heart was reperfused. When the baseline coronary flow had been reestablished, the heart was again subjected to the same protocol of sequential infusion of 5-HT and KHS as in the preischemic period. Control hearts were perfused with pure KHS and the hearts of the another three groups were perfused with KHS containing additional 10^−6 M racemic 5,6-dihydro-5-(1-piperidinyl)-methyl-3-(3-pyridyl)4H-1,2,4-oxadiazine, (−)-5,6-dihydro-5-(1-piperidinyl)-methyl-3-(3-pyridyl)4H-1,2,4-oxadiazine and (+)-5,6-dihydro-5-(1-piperidinyl)-methyl-3-(3-pyridyl)4H-1,2,4-oxadiazine, respectively. 20-30 min after the onset of hemodynamic stability, perfusion of the drugs were initiated and continued until reperfusion with the exception of the occlusion period.
The potischemic coronary responses are expressed in percentage of the preischemic vasodilator responses.

rabbit papillary muscle = assay: Contractile force of heart: rabbit right ventricular papillary muscle; conditions: for amplitude % (contractile force, % of control): cumulative addition, 15-20 min incubation; for inotropic effect (in words): between 10^−6 and 10^−4 molar range
Text: Effect of racemic 5,6-dihydro-5-(1-piperidinyl)-methyl-3-(3-pyridyl)4H-1,2,4-oxadiazine and its (−) and (+) enantiomers on the contractile force of heart
New Zealand white rabbits (male, 2-3 kg) were killed by a blow on the nape. The hearts were rapidly removed after opening the chest. Right ventricular papillary muscles were dissected and mounted in organ holding chambers and pre-tension of 0.5 g was applied. The superfusate contained (in mM) 120 NaCl, 5.4 KCl, 2.7 CaCl2, 1.1 MgCl2, 1.1 NaH2PO4, 24.0 NaHCO3 and 11.0 glucose. The pH of this superfusate was 7.4 at 37° C. when gassed with 95% O2 and 5% CO2. Stimulation and measurements were carried out by Isosys System of Experimetria, Budapest, Hungary. The preparations were paced by 1-ms-wide isolated constant voltage at a cycle length of 1000 ms. The amplitudes of the pulses were equal to twice as high as the diastolic threshold value, delivered through a pair of platinum electrodes. Before the start of the measurements the preparation was equilibrated for 60 min to allow the stabilization of its mechanical parameters. The drugs were added to the organ bath cumulatively, without washing out. Period of the incubation was 15-20 min. Measured parameters were: resting force (mg) and changes in the amplitude of contractile force (mg) which was expressed in % of the control.

[3] = acute single oral 100 mg/kg 6 hours before occlusion

SMILES	Survival (%) [1]	Infarcted area (%) [1] [%]	postischemic coronary response in percentage of the preischemic vasodilator response [2] [%]	amplitude % (contractile force, % of control) (rabbit papillary muscle; 10^−4 M) [%]	amplitude % (contractile force, % of control) (rabbit papillary muscle; 10^−5 M) [%]	amplitude % (contractile force, % of control) (rabbit papillary muscle; 10^−6 M) [%]	inotropic effect (in words) (rabbit papillary muscle)	myocardial infarct size (in words) [1, 3]	survival rate (in words) [1, 3]	endothelial function after ischemia (in words) ([2]; 10^−6 M, 10 min of global ischemia)
c1cncc(C2=NOCC(CN3CCCCC3)N2)c1 (racemic) [racemic compound, 5,6-dihydro-5-(1-piperidinyl)-methyl-3-(3-pyridyl)4H-1,2,4-oxadiazine, reference compound]	70.0%	27.2 ± 5.8	63.08 ± 11.7	83.7 ± 3.3	87.1 ± 3.5	92.6 ± 5.08	negative inotropic effect			
c1cncc(C2=NOCC(CN3CCCCC3)N2)c1 (single isomer, unassigned; (+)) [(+) enantiomer, (+)-5,6-dihydro-5-(1-piperidinyl)-methyl-3-(3-pyridyl)4H-1,2,4-oxadiazine]	75.0%	34.5 ± 4.6	49.78 ± 9.9	78.4 ± 5.0	79.5 ± 5.6	90.1 ± 3.5	negative inotropic effect			
c1cncc(C2=NOCC(CN3CCCCC3)N2)c1 (single isomer, unassigned; (-)) [(−) enantiomer, (−)-5,6-dihydro-5-(1-piperidinyl)-methyl-3-(3-pyridyl)4H-1,2,4-oxadiazine]	100.0** %	7.1 ± 2.5	88.41 ± 10.9	142.5 ± 4.8	132.8 ± 5.0	126.6 ± 5.3	positive inotropic effect	significantly reduced myocardial infarct size	increased survival rate	preserved endothelial function
